These are literature values, as cited in patent US20190350829A1, “AN ANTIMICROBIAL COMPOSITION” (Conopco, Inc., d/b/a UNILEVER, priority 2016, published 2019).

Read-outs that look alike come from different tables or passages of the source.

Turning to `CCCCC(C)CCC(=O)O` (centres unmarked) [4-methyl octanoic acid], the pKa is recorded as 4.89. Also, under “listed as methyl caprylic acid”, the pKa is reported as 4.93.
